Data taken from patent US9540388B2, “P2X7 modulators” (Janssen Pharmaceutica NV, priority 2013, dated 2017).

Assays:
rat P2X7 [1] = molecular target: T1, rat P2X7 (Rattus norvegicus (Rat), UniProt Q64663); experiment: Ca2+ flux (FLIPR) in 1321N1 cells expressing recombinant rat P2X7; type: cell-based; conditions: Table 2, additional runs; 250 μM BzATP
Procedure: (§1) P2X7 Antagonism in Recombinant Human P2X7 Cells or Recombinant Rat P2X7 Cells: (a) Ca^2+ Flux and (b) Radioligand Binding
(§2) 1321N1 cells expressing the recombinant human or rat P2X7 channel was cultured in HyQ DME/(HyClone/Dulbecco's Modified Eagle Medium) high glucose supplemented with 10% Fetal Bovine Serum (FBS) and appropriate selection marker. Cells were seeded at a density of 25000 cells/well (96-well clear bottom black walled plates) in 100 μl volume/well. On the day of the experiment, cell plates were washed with assay buffer, containing (in mM): 130 NaCl, 2 KCl, 1 CaCl2, 1 MgCl2, 10 HEPES, 5 glucose; pH 7.40 and 300 mOs. After the wash, cells were loaded with the Calcium-4 dye (Molecular Device) and incubated in the dark for 60 minutes. Test compounds were prepared at 250× the test concentration in neat DMSO. Intermediate 96-well compound plates were prepared by transferring 1.2 μL of the compound into 300 μL of assay buffer. A further 3× dilution occurred when transferring 50 μL/well of the compound plate to 100 μL/well in the cell plate. Cells were incubated with test compounds and dye for 30 minutes. […] The fluorescence change was measured 180 seconds after adding the agonist.

P2X7 [2] = molecular target: T2, P2X7 (Homo sapiens (Human), UniProt Q99572); experiment: Radioligand binding, recombinant human P2X7-1321N1 cell membranes, tritiated A-804598; conditions: Table 2, additional runs
Procedure: as §1
(§3) human or rat P2X7-1321N1 cells were collected and frozen @−80° C. On the day of the experiment, cell membrane preparations were made according to standard published methods. […] The compound can be prepared as described in the literature. […] The assay was terminated by filtration (GF/B filters pre-soaked with 0.3% PEI) and washed with washing buffer (Tris-HCl 50 mM). The IC50 generated in the binding assay was corrected for tracer concentration and affinity of the tracer to derive at the affinity (Ki) of the test compounds. […] Data are analyzed and graphed on Graphpad Prism 5.

rat P2X7 [3] = molecular target: T1, rat P2X7; experiment: Radioligand binding, recombinant rat P2X7-1321N1 cell membranes, tritiated A-804598; conditions: Table 2, additional runs
Procedure: as §1, §3

P2X7 [4] = molecular target: T2, P2X7; experiment: Ca2+ flux (FLIPR) in 1321N1 cells expressing recombinant human P2X7; type: cell-based; conditions: Table 2, additional runs; 250 μM BzATP
Procedure: as §1, §2

T2 sequence (Q99572 whole entry): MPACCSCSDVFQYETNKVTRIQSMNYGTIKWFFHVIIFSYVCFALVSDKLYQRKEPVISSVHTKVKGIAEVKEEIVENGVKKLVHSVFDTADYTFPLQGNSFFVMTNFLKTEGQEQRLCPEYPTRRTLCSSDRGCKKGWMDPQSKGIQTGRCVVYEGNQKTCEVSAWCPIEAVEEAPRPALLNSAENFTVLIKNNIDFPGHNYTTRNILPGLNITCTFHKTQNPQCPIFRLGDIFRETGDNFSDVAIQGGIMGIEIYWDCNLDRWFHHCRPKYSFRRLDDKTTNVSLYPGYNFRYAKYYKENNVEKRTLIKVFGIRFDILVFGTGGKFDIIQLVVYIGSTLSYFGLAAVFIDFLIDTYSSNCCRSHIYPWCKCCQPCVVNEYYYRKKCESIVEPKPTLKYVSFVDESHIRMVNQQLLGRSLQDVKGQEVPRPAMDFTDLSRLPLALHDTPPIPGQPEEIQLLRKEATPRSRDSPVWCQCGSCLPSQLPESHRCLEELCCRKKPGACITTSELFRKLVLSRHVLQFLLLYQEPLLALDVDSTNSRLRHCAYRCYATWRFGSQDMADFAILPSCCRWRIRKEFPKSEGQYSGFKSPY
T1 sequence (Q64663 whole entry): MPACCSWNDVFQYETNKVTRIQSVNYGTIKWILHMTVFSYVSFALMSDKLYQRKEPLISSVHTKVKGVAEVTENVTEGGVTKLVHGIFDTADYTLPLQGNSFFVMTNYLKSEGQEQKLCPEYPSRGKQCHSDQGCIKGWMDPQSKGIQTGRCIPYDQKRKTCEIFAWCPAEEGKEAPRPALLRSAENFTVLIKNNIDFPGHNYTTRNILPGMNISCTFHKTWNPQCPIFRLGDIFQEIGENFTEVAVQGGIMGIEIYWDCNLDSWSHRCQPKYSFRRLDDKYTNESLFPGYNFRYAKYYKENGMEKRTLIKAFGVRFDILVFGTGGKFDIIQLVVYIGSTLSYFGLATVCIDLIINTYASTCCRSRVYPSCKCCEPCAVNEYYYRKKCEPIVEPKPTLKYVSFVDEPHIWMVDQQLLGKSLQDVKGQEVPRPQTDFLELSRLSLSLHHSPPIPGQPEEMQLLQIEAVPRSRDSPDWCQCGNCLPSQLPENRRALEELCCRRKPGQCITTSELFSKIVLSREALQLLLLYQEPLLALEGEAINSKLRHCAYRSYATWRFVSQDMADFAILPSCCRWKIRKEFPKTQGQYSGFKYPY

| Structure (SMILES) | IC50 (rat P2X7 [1]) [nM] | Ki (P2X7 [2]) [nM] | Ki (rat P2X7 [3]) [nM] | IC50 (P2X7 [4]) [nM] |
| --- | --- | --- | --- | --- |
| O=C(c1ccc(F)c(Cl)c1Cl)N1[C@@H]2CCC[C@H]1c1nnc(-c3ccccn3)n1C2 (stereo in doubt) [Example 203, (6R,10S)-11-[(2,3-Dichloro-4-fluorophenyl)carbonyl]-3-pyridin-2-yl-5,6,7,8,9,10-hexahydro-6,10-epimino[1,2,4]triazolo[4,3-a]azocine] | 20 | 5.3 | 2.2 | 25.3 |
| Cc1nc(-c2nnc3n2C[C@H]2CCC[C@@H]3N2C(=O)c2cccc(C(F)(F)F)c2Cl)ccc1F (stereo in doubt) [Example 193, (6R,10S)-11-{[2-Chloro-3-(trifluoromethyl)phenyl]carbonyl}-3-(5-fluoro-6-methylpyridin-2-yl)-5,6,7,8,9,10-hexahydro-6,10-epimino[1,2,4]triazolo[4,3-a]azocine] | 41.1 | 70.8 | 4.9 | 30.7 |
| O=C(c1ccnc(C(F)(F)F)c1Cl)N1[C@@H]2CCC[C@H]1c1nnc(-c3ccccn3)n1C2 (stereo in doubt) [Example 199, (6R,10S)-11-{[3-Chloro-2-(trifluoromethyl)pyridin-4-yl]carbonyl}-3-pyridin-2-yl-5,6,7,8,9,10-hexahydro-6,10-epimino[1,2,4]triazolo[4,3-a]azocine] | 12.7 | 25.1 | 5 | 29.5 |
| O=C(c1ccc(Cl)c(F)c1Cl)N1[C@@H]2CCC[C@H]1c1nnc(-c3ccccn3)n1C2 (stereo in doubt) [Example 202, (6R,10S)-11-[(2,4-Dichloro-3-fluorophenyl)carbonyl]-3-pyridin-2-yl-5,6,7,8,9,10-hexahydro-6,10-epimino[1,2,4]triazolo[4,3-a]azocine] | 462 | 3.9 | 5.8 | 17.6 |
| O=C(c1ccc(F)c(C(F)(F)F)c1Cl)N1[C@@H]2CCC[C@H]1c1nnc(-c3ccccn3)n1C2 (stereo in doubt) [Example 200, (6R,10S)-11-{[2-Chloro-4-fluoro-3-(trifluoromethyl)phenyl]carbonyl}-3-pyridin-2-yl-5,6,7,8,9,10-hexahydro-6,10-epimino[1,2,4]triazolo[4,3-a]azocine] | 10.2 | 10.7 | 3.2 | […] |
| O=C(c1cccc(C(F)(F)F)c1Cl)N1[C@@H]2CCC[C@H]1c1nnc(-c3cc(C(F)(F)F)ccn3)n1C2 (stereo in doubt) [Example 196, (6R,10S)-11-{[2-Chloro-3-(trifluoromethyl)phenyl]carbonyl}-3-[4-(trifluoromethyl)pyridin-2-yl]-5,6,7,8,9,10-hexahydro-6,10-epimino[1,2,4]triazolo[4,3-a]azocine] | 1.7 | 21.9 | 5.8 | 1.6 |
| Cc1ccnc(-c2nnc3n2C[C@H]2CCC[C@@H]3N2C(=O)c2cccc(C(F)(F)F)c2Cl)c1 (stereo in doubt) [Example 194, (6R,10S)-11-{[2-Chloro-3-(trifluoromethyl)phenyl]carbonyl}-3-(4-methylpyridin-2-yl)-5,6,7,8,9,10-hexahydro-6,10-epimino[1,2,4]triazolo[4,3-a]azocine] | 7.4 | 14.1 | 3.1 | 17.3 |
| O=C(c1cccc(C(F)(F)F)c1Cl)N1[C@@H]2CCC[C@H]1c1nnc(-c3ccncn3)n1C2 (stereo in doubt) [Example 197, (6R,10S)-11-{[2-Chloro-3-(trifluoromethyl)phenyl]carbonyl}-3-pyrimidin-4-yl-5,6,7,8,9,10-hexahydro-6,10-epimino[1,2,4]triazolo[4,3-a]azocine] | 1490 | 19.1 | 63.1 | 10.7 |
| O=C(c1cccc(C(F)(F)F)c1Cl)N1[C@@H]2CCC[C@H]1c1nnc(-c3cccnn3)n1C2 (stereo in doubt) [Example 195, (6R,10S)-11-{[2-Chloro-3-(trifluoromethyl)phenyl]carbonyl}-3-pyridazin-3-yl-5,6,7,8,9,10-hexahydro-6,10-epimino[1,2,4]triazolo[4,3-a]azocine] | > 10000 | 20.9 | – | 40 |
| O=C(c1ccnc(C(F)(F)F)c1F)N1[C@@H]2CCC[C@H]1c1nnc(-c3ccccn3)n1C2 (stereo in doubt) [Example 198, (6R,10S)-11-{[3-Fluoro-2-(trifluoromethyl)pyridin-4-yl]carbonyl}-3-pyridin-2-yl-5,6,7,8,9,10-hexahydro-6,10-epimino[1,2,4]triazolo[4,3-a]azocine] | 327 | 9.8 | 6.2 | 20.9 |
| Cc1c(C(=O)N2[C@@H]3CCC[C@H]2c2nnc(-c4ccccn4)n2C3)cccc1C(F)(F)F (stereo in doubt) [Example 201, (6R,10S)-11-{[2-Methyl-3-(trifluoromethyl)phenyl]carbonyl}-3-pyridin-2-yl-5,6,7,8,9,10-hexahydro-6,10-epimino[1,2,4]triazolo[4,3-a]azocine] | 726 | 11.5 | 3.2 | 14 |
